Source: US20260248809A1, “ESTRADIOL PRODRUGS AND METHODS OF USE THEREOF” (UNIVERSITY OF MARYLAND, BALTIMORE, priority 2022, published 2026)

How the values were obtained:
male mice = assay: Stress-moderated acquisition, extinction and reinstatement of fear; type: in vivo, mouse; details: orchiectomized males + subthreshold SDS, 10 mm silastic implant
Excerpt: Determine the role of E2 in stress-moderated acquisition, extinction, and reinstatement of fear responses in males. Animal approaches to study PTSD should include an inescapable severe stressor. These experiments assess interactions between a stress and the effects of E2. […] For either result, it is critical to understand if E2 mediates interactions with stress. This is because the acquisition of fear is an adaptive response that is not considered pathological in and of itself. However, veterans have often encountered stressful circumstances that lead to an exaggerated and pathological state of fear, which is both resistant to extinction and highly susceptible to relapse. Considering that social stress is an important risk factor contributing toward the onset of PTSD in response to a traumatic event, the social defeat stress paradigm is utilized in order to model the conditions under which veterans develop PTSD. […] It is anticipated that sub-threshold SDS (rather than 10 day) paradigm is sufficient to induce effects in orchiectomized mice. […] Mice are assessed for social interaction deficits 24 hours after the subthreshold defeat sessions to determine if they are resilient or susceptible. n=18/mice per group is used to account for only a subset of mice being susceptible to stress. […]

[1] = system: ERβ-expressing BLA-to-NAc neurons; assay: cFos immunofluorescence of ERβ projections to the NAc after E2 and SSDS; type: in vivo, mouse
[2] = system: TRPM-2, ODC, AR and ERα expression; details: in vivo; cited from earlier work
C3 expression = details: rat, in vivo; cited from earlier work

## C[C@]12CC[C@H]3[C@@H](CCC4=CC(=O)CC[C@@]43C)[C@@H]1CC[C@@H]2O [Testosterone, testosterone]
Male mice
  stress effect on extinction of conditioned fear and reinstatement: reversed

## C[C@]12CC[C@@H]3c4ccc(O)cc4CC[C@H]3[C@@H]1CC[C@@H]2O [Example E2, 17β-Estradiol]
[1]; orchiectomized mice, acute treatment prior to SSDS
  activation of ERβ-expressing BLA-to-NAc neurons (c-Fos): activated at a significantly higher degree
[1]; prefrontal, cingulate and insular cortex projections
  activation of the other strong ERβ-projections to the NAc (c-Fos): activation of any of the other strong ERβ-projections to the NAc in response to E2 was observed
[2]
  expression of TRPM-2, ODC, AR and ERα in the prostate gland: decreases in the expression
Male mice
  stress effect on extinction of conditioned fear and reinstatement: reversed
C3 expression
  uterus C3 expression: increases C3 expression
